Reference: patent publication US20050065208A1, “Benzofuranes and their use in the treatment of atrial fibrillation” (priority 2001, published 2005)
Like-named read-outs stand apart in the source and are kept apart here.

Assays:
[1] = molecular target: T1, IK(ACh), AcetylCholine activated K-current (Homo sapiens, UniProt P48544+P48549); assay: Voltage clamp on cardiomyocyte cultures: inhibition of K-current induced by ACh or carbachol; assay type: cell-based
T1 construct: electrophysiology technique applied to cardiomyocyte cultures; endogenous in cells
T1 sequence (P48549 1-501): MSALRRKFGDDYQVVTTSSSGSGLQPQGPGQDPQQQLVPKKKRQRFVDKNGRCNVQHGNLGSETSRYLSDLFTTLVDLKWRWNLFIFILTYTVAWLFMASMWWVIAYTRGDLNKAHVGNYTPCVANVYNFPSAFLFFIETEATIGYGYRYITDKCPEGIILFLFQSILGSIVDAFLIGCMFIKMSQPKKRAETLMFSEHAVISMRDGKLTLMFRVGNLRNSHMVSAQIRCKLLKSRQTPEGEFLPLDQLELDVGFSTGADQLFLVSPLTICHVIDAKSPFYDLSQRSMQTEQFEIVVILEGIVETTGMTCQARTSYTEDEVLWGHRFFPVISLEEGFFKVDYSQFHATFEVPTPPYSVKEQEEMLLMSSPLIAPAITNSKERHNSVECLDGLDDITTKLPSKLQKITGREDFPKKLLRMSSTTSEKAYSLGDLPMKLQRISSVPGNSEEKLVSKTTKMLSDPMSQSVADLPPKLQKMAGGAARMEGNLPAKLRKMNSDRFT
T1 sequence (P48544 1-419): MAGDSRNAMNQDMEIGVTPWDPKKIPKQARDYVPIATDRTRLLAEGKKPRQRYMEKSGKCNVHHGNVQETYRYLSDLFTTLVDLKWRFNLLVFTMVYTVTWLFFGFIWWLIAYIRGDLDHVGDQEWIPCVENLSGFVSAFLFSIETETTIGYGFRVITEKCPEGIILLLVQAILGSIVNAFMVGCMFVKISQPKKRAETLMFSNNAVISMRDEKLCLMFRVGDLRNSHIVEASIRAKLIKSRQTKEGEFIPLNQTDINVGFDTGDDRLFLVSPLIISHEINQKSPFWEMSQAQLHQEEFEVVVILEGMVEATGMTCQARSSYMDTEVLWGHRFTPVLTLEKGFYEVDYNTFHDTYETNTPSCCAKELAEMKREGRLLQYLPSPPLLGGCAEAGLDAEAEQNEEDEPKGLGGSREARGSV
Description: (§1) In the present invention acute and chronic effects of various compounds have been investigated by using electrophysiology technique applied to cardiomyocyte cultures.
(§2) The inhibitory effects occur within seconds after induction of the current with ACh, Ado or dinitrophenole (DNP reduces intracellular ATP). The acute inhibitory effects caused by the compounds of the present invention on these K-currents in cardiac muscle tissue had not previously been discovered. The reasons for this include the fact that these ligand activated K-currents (IK(Ado), IK(ACh) and IK(ATP)) are preferentially active in the atrial cardiomyocytes (Workman A J et al. Cardiovasc Res 1999 September;43(4):974-84; Koumi S-I, and Wasserstorm A. American Journal of Physiology 266[35], H1812-H1821. 1994), while previous studies have been carried out with tissue from cardiac ventricles. Furthermore, IK(Ado) and IK(ACh) must first be induced via the M2 or A1 receptor (with ACh and Ado respectively) before any inhibition can be observed. Without any agonist at the extracellular site of the membrane these ligand-gated channels probably have only minor roles in shaping repolarization but, when activated by extracellular acetylcholine or adenosine, they can substantially shorten action potential duration in the atrium (Tristani-Firouzi M et al. Am J Med 2001 January; 110(1):50-9).
(§3) The following Table 1 illustrates the potency (IC50-values) of compounds of formulae I and II compared with other anti-arrhythmic drugs to inhibit the transmembrane currents IK(Ado) and IK(ACh) after stimulation of the currents with Adenosine or Acetylcholine (or Carbachol).

[2] = molecular target: T2, IK(Ado), adenosine activated K-current (Homo sapiens, UniProt P48544+P48549); assay: Voltage clamp on cardiomyocyte cultures: inhibition of adenosine-induced K-current; assay type: cell-based
T2 construct: electrophysiology technique applied to cardiomyocyte cultures; endogenous in cells
T2 sequence (P48549 1-501): T1 sequence (P48549 1-501)
T2 sequence (P48544 1-419): T1 sequence (P48544 1-419)
Description: as §1, §2, §3

[3] = molecular target: T1, IK(ACh), AcetylCholine activated K-current; set-up: key to Blocking activity on IK(ACh): Yes: The compound has been demonstrated to inhibit the particular current (reference within parenthesis).; No: The compound has been demonstrated to not inhibit the particular current (reference within parenthesis).; U: No data regarding interaction of the compound with the particular current has been found in the literature; conditions: cited from earlier work; for IC50: current induced by ACh or carbachol, literature value, read-out: Inhibition of IK (ACh) (Induced by ACh or Carbachol) (IC50); for Blocking activity on IK(ACh): Table 2, literature
[4] = molecular target: T2, IK(Ado), adenosine activated K-current; set-up: key to Blocking activity on IK(Ado): Yes: The compound has been demonstrated to inhibit the particular current (reference within parenthesis).; No: The compound has been demonstrated to not inhibit the particular current (reference within parenthesis).; U: No data regarding interaction of the compound with the particular current has been found in the literature; conditions: cited from earlier work; for IC50: literature value, read-out: Inhibition of IK (Ado) Induced by Adenosine (IC50); for Blocking activity on IK(Ado): Table 2, literature
[5] = system: Ito, transient outward K-current; set-up: key: Yes: The compound has been demonstrated to inhibit the particular current (reference within parenthesis).; No: The compound has been demonstrated to not inhibit the particular current (reference within parenthesis).; U: No data regarding interaction of the compound with the particular current has been found in the literature; conditions: Table 2, literature; cited from earlier work
[6] = molecular target: IKs, slow component of the delayed rectifier K-current (Homo sapiens, UniProt P51787); set-up: key: Yes: The compound has been demonstrated to inhibit the particular current (reference within parenthesis).; No: The compound has been demonstrated to not inhibit the particular current (reference within parenthesis).; U: No data regarding interaction of the compound with the particular current has been found in the literature; conditions: Table 2, literature; cited from earlier work
[7] = system: IK1, inward rectifier K-current; set-up: key: Yes: The compound has been demonstrated to inhibit the particular current (reference within parenthesis).; No: The compound has been demonstrated to not inhibit the particular current (reference within parenthesis).; U: No data regarding interaction of the compound with the particular current has been found in the literature; conditions: Table 2, literature; cited from earlier work
[8] = molecular target: INa, depolarizing Na-current (Homo sapiens, UniProt Q14524); set-up: key: Yes: The compound has been demonstrated to inhibit the particular current (reference within parenthesis).; No: The compound has been demonstrated to not inhibit the particular current (reference within parenthesis).; U: No data regarding interaction of the compound with the particular current has been found in the literature; conditions: Table 2, literature; cited from earlier work
[9] = molecular target: T3, IK(ATP), ATP-sensitive K-current (Homo sapiens, UniProt Q14654); set-up: key: Yes: The compound has been demonstrated to inhibit the particular current (reference within parenthesis).; No: The compound has been demonstrated to not inhibit the particular current (reference within parenthesis).; U: No data regarding interaction of the compound with the particular current has been found in the literature; conditions: Table 2, literature; cited from earlier work
T3 construct: electrophysiology technique applied to cardiomyocyte cultures; endogenous in cells; current induced with dinitrophenole
T3 sequence (Q14654 whole entry): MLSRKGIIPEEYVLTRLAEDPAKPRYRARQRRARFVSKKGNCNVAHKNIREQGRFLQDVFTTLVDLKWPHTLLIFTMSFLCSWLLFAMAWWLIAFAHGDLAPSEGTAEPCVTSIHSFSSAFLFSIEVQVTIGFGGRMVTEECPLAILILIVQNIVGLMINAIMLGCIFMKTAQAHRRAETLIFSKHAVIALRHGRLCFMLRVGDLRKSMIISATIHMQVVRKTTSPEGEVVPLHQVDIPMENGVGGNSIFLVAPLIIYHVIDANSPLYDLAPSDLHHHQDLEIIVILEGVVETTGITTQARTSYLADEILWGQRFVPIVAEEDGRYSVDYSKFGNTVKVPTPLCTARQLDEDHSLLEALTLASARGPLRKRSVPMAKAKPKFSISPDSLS
T3 sequence (O60706 whole entry partner): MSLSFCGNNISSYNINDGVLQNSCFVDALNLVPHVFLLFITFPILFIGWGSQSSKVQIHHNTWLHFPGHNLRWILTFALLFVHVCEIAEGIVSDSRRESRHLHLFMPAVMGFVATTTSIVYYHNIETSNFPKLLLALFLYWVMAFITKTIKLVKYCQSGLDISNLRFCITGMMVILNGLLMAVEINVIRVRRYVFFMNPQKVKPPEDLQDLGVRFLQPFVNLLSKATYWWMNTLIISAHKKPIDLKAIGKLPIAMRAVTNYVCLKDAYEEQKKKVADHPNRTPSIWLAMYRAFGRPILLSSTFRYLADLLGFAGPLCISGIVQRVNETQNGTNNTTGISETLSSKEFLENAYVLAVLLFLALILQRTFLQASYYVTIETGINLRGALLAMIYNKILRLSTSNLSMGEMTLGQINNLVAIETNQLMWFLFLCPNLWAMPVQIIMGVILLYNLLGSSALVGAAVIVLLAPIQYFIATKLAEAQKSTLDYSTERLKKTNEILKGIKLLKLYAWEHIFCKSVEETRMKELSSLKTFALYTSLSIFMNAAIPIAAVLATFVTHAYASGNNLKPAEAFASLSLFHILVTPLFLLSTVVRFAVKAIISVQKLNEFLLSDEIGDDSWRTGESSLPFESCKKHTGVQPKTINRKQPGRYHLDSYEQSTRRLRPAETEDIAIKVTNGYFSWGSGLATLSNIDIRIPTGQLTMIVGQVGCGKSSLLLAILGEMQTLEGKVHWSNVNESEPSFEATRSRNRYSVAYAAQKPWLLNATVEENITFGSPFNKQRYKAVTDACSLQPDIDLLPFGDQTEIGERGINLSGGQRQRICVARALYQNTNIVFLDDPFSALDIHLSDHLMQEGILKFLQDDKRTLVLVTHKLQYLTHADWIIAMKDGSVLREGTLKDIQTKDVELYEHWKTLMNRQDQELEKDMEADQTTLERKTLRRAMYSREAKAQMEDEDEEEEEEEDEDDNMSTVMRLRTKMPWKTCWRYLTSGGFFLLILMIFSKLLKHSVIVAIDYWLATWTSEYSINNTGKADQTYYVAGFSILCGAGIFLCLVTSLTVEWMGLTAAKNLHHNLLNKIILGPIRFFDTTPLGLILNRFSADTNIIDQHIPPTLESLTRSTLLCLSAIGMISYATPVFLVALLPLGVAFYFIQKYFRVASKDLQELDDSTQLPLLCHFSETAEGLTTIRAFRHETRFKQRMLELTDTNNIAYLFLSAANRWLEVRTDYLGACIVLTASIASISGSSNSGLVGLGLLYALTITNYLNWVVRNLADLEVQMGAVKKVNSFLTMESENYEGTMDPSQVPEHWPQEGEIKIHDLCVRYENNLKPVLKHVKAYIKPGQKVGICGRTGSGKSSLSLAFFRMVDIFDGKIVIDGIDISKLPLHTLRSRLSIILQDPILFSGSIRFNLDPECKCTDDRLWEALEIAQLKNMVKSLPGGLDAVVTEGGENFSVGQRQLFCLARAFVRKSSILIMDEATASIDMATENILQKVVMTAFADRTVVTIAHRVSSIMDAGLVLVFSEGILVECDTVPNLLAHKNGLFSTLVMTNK

Sequence of INa, depolarizing Na-current (Q14524 whole entry): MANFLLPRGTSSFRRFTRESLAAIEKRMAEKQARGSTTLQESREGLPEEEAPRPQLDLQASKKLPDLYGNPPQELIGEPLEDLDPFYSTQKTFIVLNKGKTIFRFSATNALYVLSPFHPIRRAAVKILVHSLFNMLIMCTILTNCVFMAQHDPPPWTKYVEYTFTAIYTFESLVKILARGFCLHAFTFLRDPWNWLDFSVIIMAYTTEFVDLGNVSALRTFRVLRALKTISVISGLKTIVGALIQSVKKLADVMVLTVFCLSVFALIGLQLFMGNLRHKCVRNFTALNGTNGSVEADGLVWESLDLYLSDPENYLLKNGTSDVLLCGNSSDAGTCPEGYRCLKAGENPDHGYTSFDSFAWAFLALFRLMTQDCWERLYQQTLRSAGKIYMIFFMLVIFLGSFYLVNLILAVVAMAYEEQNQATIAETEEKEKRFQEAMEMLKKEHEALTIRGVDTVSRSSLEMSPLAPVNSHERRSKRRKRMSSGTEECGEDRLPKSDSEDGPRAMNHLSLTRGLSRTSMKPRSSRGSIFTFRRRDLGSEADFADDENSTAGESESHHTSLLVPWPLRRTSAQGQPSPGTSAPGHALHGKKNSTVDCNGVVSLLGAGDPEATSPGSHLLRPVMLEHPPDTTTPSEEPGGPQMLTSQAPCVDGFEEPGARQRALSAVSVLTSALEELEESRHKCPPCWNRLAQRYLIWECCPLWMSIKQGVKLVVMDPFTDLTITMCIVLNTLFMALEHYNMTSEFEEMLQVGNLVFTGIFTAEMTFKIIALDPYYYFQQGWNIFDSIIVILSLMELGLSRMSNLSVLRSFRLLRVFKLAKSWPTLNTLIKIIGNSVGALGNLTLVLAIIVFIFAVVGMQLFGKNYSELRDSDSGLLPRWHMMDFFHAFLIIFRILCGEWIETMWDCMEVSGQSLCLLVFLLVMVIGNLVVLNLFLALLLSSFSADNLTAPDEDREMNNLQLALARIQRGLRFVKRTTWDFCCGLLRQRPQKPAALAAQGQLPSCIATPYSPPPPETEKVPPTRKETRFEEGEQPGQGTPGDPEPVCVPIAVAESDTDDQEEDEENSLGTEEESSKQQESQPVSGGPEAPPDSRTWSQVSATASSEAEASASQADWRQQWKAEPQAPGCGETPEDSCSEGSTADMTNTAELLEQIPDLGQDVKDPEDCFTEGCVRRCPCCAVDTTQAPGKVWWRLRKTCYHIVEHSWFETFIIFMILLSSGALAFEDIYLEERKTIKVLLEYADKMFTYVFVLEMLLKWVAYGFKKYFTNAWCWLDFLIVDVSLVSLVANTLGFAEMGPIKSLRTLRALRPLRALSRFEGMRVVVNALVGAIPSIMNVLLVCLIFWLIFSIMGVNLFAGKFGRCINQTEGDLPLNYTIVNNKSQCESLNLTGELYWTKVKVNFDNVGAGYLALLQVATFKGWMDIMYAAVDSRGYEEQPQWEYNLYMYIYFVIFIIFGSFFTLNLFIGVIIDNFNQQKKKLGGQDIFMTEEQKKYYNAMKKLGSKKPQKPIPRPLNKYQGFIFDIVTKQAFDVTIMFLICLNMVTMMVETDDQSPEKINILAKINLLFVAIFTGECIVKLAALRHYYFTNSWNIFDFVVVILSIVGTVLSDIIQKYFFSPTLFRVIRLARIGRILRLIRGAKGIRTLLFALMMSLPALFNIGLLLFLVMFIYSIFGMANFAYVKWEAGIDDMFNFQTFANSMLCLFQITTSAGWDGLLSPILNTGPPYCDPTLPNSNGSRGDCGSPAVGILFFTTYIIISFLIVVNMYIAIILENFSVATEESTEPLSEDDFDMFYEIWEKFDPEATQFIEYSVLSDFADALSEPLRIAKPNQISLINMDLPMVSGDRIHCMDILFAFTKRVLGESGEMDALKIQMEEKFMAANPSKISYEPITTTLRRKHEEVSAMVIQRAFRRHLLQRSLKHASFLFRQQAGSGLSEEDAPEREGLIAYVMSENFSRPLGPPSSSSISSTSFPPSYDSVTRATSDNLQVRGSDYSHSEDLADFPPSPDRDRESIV

| Structure (SMILES) | IC50 [3] | Blocking activity on IK(ACh) [3] | Blocking activity on Ito [5] | Blocking activity on IKs [6] | Blocking activity on IK1 [7] | Blocking activity on INa [8] | Blocking activity on IK(ATP) [9] | other results |
| --- | --- | --- | --- | --- | --- | --- | --- | --- |
| N[C@@H](Cc1cc(I)c(Oc2ccc(O)c(I)c2)c(I)c1)C(=O)O [Example T3, triiodthyronine] | – | – | – | – | – | – | – | Acute effects on IK(ACh) [1]: does not have acute effects; Acute effects on IK(Ado) [2]: does not have acute effects |
| Cc1cccc(C)c1NC(=O)CC12CCCN1CCC2 [SUN 1165] | 29000 nM | – | – | – | – | – | – | – |
| Cn1c(NCCN(CCO)CCCc2ccc([N+](=O)[O-])cc2)cc(=O)n(C)c1=O [MS-551] | 11000 nM | – | – | – | – | – | – | Inhibition of IK (Ado) Induced by Adenosine, effect at 100 μM ([4]; literature): Some effect at 100 μM |
| O=C(NCC1CCCCN1)c1cc(OCC(F)(F)F)ccc1OCC(F)(F)F (centres unmarked) [Flecainide] | 3600 nM | Yes | Yes | No | No | Yes | Yes | – |
| CCCCc1oc2ccc(NS(C)(=O)=O)cc2c1C(=O)c1ccc(OCCCN(CCCC)CCCC)cc1 [Dronedarone] | 10 nM | Yes | – | Yes | – | Yes | – | – |
| CC(C)NCC(O)COc1cccc2ccccc12 (centres unmarked) [Propranolol] | 56000 nM | – | – | – | – | – | – | IC50 ([4]; current induced by adenosine): 8000 nM |
| C=C[C@H]1C[N@@]2CC[C@H]1C[C@@H]2[C@@H](O)c1ccnc2ccc(OC)cc12 [Quinidine] | 1600 nM | Yes | Yes | No | No | Yes | Yes | – |
| CC(C)NCC(O)c1ccc(NS(C)(=O)=O)cc1 (racemic) [d,l-sotalol] | 36000 nM | Yes (Mori) | Yes | No | Yes | No | – | Blocking activity on IK(Ado) [4]: No; Inhibition of IK (Ado) Induced by Adenosine, in words ([4]; current induced by adenosine, literature): No effect |
| CCN(CC)CCCN(c1ccccc1)C1Cc2ccccc2C1 [Aprinidine] | 400 nM | Yes | Yes | No | No | Yes | – | – |
| COc1ccc(C2CCN(CC[C@H]3CCOc4ccccc43)CC2)cc1OC [Terikalant] | 2000 nM | Yes | Yes | Yes | Yes | No | No | Blocking activity on IK(Ado) [4]: Yes; IC50 ([4]; current induced by adenosine): 2000 nM |
| CC(C)N(CCC(C(N)=O)(c1ccccc1)c1ccccn1)C(C)C (centres unmarked) [Disopyramide] | 1700 nM | Yes | Yes | Yes | No | Yes | Yes | – |
| Cc1oc2ccccc2c1C(=O)c1cc(I)c(O)c(I)c1 [Example E5, 2-methyl-3-(3,5-diiodo-4-hydroxy-benzoyl)benzofuran] | – | – | – | – | – | – | – | IC50 ([1]; current induced by ACh or carbachol): 1000 nM; IC50 ([2]; current induced by adenosine): 1000 nM |
| Cc1cccc(CCN2CCC(C(=O)c3ccc(NS(C)(=O)=O)cc3)CC2)n1 [Example E-4031] | 8000 nM | – | – | – | – | – | – | Inhibition of IK (Ado) Induced by Adenosine, effect at 100 μM ([4]; literature): Some effect at 100 μM |
